The values below come from PubChem BioAssay (NCI).

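Tested at 5 concentrations; 48 h exposure; 96-well plates; endpoints linearly interpolated, else capped at highest concentration. GI50: concentration for 50% inhibition of growth. At the TGI there is no net growth.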 Bounds are passed on as bounds.

Among the test systems are SF-539 CNS; OVCAR-3 ovarian; TK-10 renal; NCI-H460 lung; A498 renal; UO-31 renal; IGROV1 ovarian; MCF7 breast; OVCAR-5 ovarian; EKVX NSCLC.
Holding throughout (assay): NCI anticancer screen, dose series, 48 h

Take `CCCCCCc1cc2cc(-c3csc(/C=C/c4ccccc4)n3)c(=O)oc2cc1O`: the GI50 with SF-539 CNS is 10 µM; in the test on OVCAR-3 ovarian it was 3.52 µM; in the test on TK-10 renal it was 29 µM; in the test on NCI-H460 lung it was 7.01 µM; with A498 renal it was 14.4 µM; with UO-31 renal it was 15.7 µM. For the same molecule, the GI50 is 15.9 µM in the test on IGROV1 ovarian, 4.62 µM in the test on MCF7 breast and 40.8 µM in the test with OVCAR-5 ovarian. The TGI was 23 µM in the test on SF-539 CNS; 9.98 µM with OVCAR-3 ovarian; 69.5 µM in the test on TK-10 renal; 21.7 µM in the test with NCI-H460 lung; 30.5 µM in the test on A498 renal; over 100 µM with UO-31 renal. The TGI with IGROV1 ovarian is 38.3 µM; in the test with MCF7 breast it was 44 µM; in the test with OVCAR-5 ovarian it was over 100 µM.
Regarding `O=C(O)c1cn(C2CC2)c2cc(N3CCN(C(=O)Nc4nc(-c5ccc(Br)cc5)cs4)CC3)c(F)cc2c1=O`, the GI50 with SF-539 CNS was 1.56 µM; with OVCAR-3 ovarian, 1.42 µM; in the test on NCI-H460 lung it was 1.09 µM; in the test with UO-31 renal it was 1.64 µM; in the test on IGROV1 ovarian, 3.38 µM; with MCF7 breast, 2.7 µM. Further, the TGI in the test on SF-539 CNS, with OVCAR-3 ovarian, in the test on NCI-H460 lung, in the test on UO-31 renal, in the test on IGROV1 ovarian and with MCF7 breast was over 100 µM each time.
For `CCOc1cc(/C=C/C(=O)C(C(=O)/C=C/c2ccc(OC(=O)CNc3nnc(C)s3)c(OCC)c2)C(=O)CNc2nnc(C)s2)ccc1OC(=O)CNc1nnc(C)s1`, the GI50 is 1.17 µM with SF-539 CNS; 3 µM with EKVX NSCLC; 1.24 µM with OVCAR-3 ovarian; 3.49 µM in the test on TK-10 renal; 1.97 µM in the test with NCI-H460 lung; 1.8 µM in the test on A498 renal. The GI50 in the test with UO-31 renal is 1.41 µM; in the test on MCF7 breast, 0.317 µM; with OVCAR-5 ovarian it was 2.43 µM. Further, the TGI with SF-539 CNS amounted to 3.42 µM; in the test with EKVX NSCLC, 15.2 µM; in the test on OVCAR-3 ovarian, 4.85 µM; in the test on TK-10 renal, 14.4 µM; with NCI-H460 lung, 4.54 µM; with A498 renal, 3.64 µM. Besides, the TGI in the test on UO-31 renal worked out at 7.81 µM; with MCF7 breast, 2.28 µM; with OVCAR-5 ovarian, 5.41 µM.
On to `O=C(/C=C/c1nnc2n(Cc3ccccc3)c(=O)c3c4c(sc3n12)CCCC4)c1ccccc1`, for which the GI50 is over 100 µM in the test with SF-539 CNS; over 100 µM in the test with EKVX NSCLC; 0.354 µM with TK-10 renal; over 100 µM with NCI-H460 lung; over 100 µM in the test on A498 renal; 3.06 µM in the test with UO-31 renal. The GI50 in the test with IGROV1 ovarian and in the test with OVCAR-5 ovarian was over 100 µM in each case. Moreover, the TGI with SF-539 CNS is over 100 µM; in the test on EKVX NSCLC, over 100 µM; in the test on TK-10 renal, 1.38 µM; in the test on NCI-H460 lung, over 100 µM; with A498 renal, over 100 µM; in the test with IGROV1 ovarian, over 100 µM. Also, the TGI in the test with MCF7 breast and in the test with OVCAR-5 ovarian was over 100 µM each time.
`NC(=S)N/N=C(\CCC(=O)Nc1ccccc1[N+](=O)[O-])CC(=O)c1ccco1`: the TGI in the test on SF-539 CNS, with EKVX NSCLC, in the test on OVCAR-3 ovarian, in the test on TK-10 renal, in the test on NCI-H460 lung and in the test with A498 renal was over 100 µM throughout. The TGI with UO-31 renal, in the test on IGROV1 ovarian and with OVCAR-5 ovarian was over 100 µM throughout.
Take `O=c1c(O)cc2c(O)oc3c(=O)c(O)c(O)c4c(O)oc1c2c43`: the TGI with SF-539 CNS, with EKVX NSCLC, in the test with OVCAR-3 ovarian, in the test on TK-10 renal, in the test on NCI-H460 lung and with A498 renal was over 100 µM in each case. In addition, the TGI in the test on UO-31 renal, with IGROV1 ovarian and in the test with OVCAR-5 ovarian was over 100 µM in each case.
As to `C=CCC12CCC(=O)[C@@]1(C)CC=C(O)C2=O` (stereo partly drawn), the TGI in the test on SF-539 CNS, in the test with EKVX NSCLC, with OVCAR-3 ovarian, in the test on TK-10 renal, in the test with NCI-H460 lung and in the test on A498 renal was over 100 µM in each case. Further, the TGI in the test on UO-31 renal, in the test with IGROV1 ovarian and in the test on OVCAR-5 ovarian was over 100 µM throughout.
Turning to `Brc1ccc(Nc2nc3ccccc3nc2Nc2ccc(Br)cc2)cc1`, the GI50 in the test on SF-539 CNS is 1.51 µM; in the test with OVCAR-3 ovarian it was 0.401 µM; in the test with TK-10 renal, 1.81 µM; in the test on NCI-H460 lung, 0.39 µM; in the test with A498 renal, 0.0513 µM; in the test with UO-31 renal it was 1.83 µM. Further, the figures for the GI50 in the test on IGROV1 ovarian, with MCF7 breast and with OVCAR-5 ovarian were 1.43 µM, 0.527 µM and 1.03 µM, respectively. For the same molecule, the TGI in the test on SF-539 CNS was found to be 3.56 µM; in the test with OVCAR-3 ovarian, 1.54 µM; in the test with TK-10 renal, 6.6 µM; in the test on NCI-H460 lung, 2.56 µM; with A498 renal it was 2.75 µM; in the test with UO-31 renal, 6.3 µM. In addition, the TGI with IGROV1 ovarian amounted to 13.5 µM; in the test with MCF7 breast, 5.41 µM; with OVCAR-5 ovarian, 5.15 µM.
In the case of `N#Cc1c2ccccc2c2nnc3ccc(C(F)(F)F)cc3n12`, the GI50 with OVCAR-3 ovarian is 38.2 µM; with TK-10 renal, 23 µM; in the test with NCI-H460 lung, 28.7 µM; in the test on UO-31 renal, 85.6 µM; with IGROV1 ovarian, 47.9 µM; in the test on MCF7 breast, 27.6 µM. Also, the TGI in the test on OVCAR-3 ovarian, with TK-10 renal, in the test on NCI-H460 lung, in the test with UO-31 renal, with IGROV1 ovarian and with MCF7 breast was over 100 µM in each case.
For `FC(F)(F)c1cc(-c2ncn(/C=C\c3nnco3)n2)cc(C(F)(F)F)c1`, the GI50 with SF-539 CNS is 0.0197 µM; with OVCAR-3 ovarian, 0.06 µM; with TK-10 renal, 0.0803 µM; with NCI-H460 lung it was 0.0384 µM; with A498 renal, under 0.0128 µM; in the test with UO-31 renal, 0.151 µM. For the same molecule, the figures for the GI50 in the test with IGROV1 ovarian, in the test on MCF7 breast and in the test with OVCAR-5 ovarian were 0.676 µM, 0.0414 µM and 0.267 µM, respectively. In addition, the TGI in the test with SF-539 CNS is 0.0744 µM; with OVCAR-3 ovarian, 1.42 µM; in the test with TK-10 renal, 12.5 µM; in the test on A498 renal, 0.0639 µM; in the test on UO-31 renal, over 100 µM; with IGROV1 ovarian it was over 100 µM. Besides, the results for the TGI in the test on MCF7 breast and in the test on OVCAR-5 ovarian were 2.94 µM and over 63.3 µM, respectively.
